Experimental data from paper PMC6356585 (Viruses, 2018).
Where a name gives a salt, the structure may show the parent alone. Read-outs that look alike come from different tables or passages of the source.

Tests used:
[1] = test system: autophagic vesicles in Vero cells; assay: Autophagy detection (CYTO-ID) in Vero cells; format: cell-based; conditions: 10 µM compound, 24 h, CYTO-ID green MFI vs DMSO control
ZIKV IbH = assay: Autophagy compound screen in Vero cells infected with ZIKV IbH; format: cell-based, Zika virus; conditions: African-lineage ZIKV IbH, 10 µM
ZIKV SPH [2] = assay: Autophagy compound library screen, ZIKV SPH titer (TCID50) in C6/36 cells; format: cell-based, Zika virus; conditions: for activity at 10 µM: Zika virus, read-out: ZIKV SPH Relative Titer in C6/36 Cells
Vero cells = assay: Cell viability (CellTiter-Glo) of Vero cells; format: cell-based
ZIKV SPH [3] = assay: Autophagy compound library screen, ZIKV SPH titer (TCID50) in Vero cells; format: cell-based, Zika virus; conditions: for activity at 10 µM: Zika virus, Vero, read-out: ZIKV SPH Relative Titer in Vero Cells
C6/36 cells = format: cell-based, Ae. albopictus
ZIKV SPH [4] = assay: Time-of-addition assay in Vero cells; format: cell-based, Zika virus; conditions: Vero, 24 hpi
ZIKV = test system: ZIKV; parameters: method as in ref 12 = [12]; conditions: cited from earlier work
[5] = C6/36, 10 µM compound, MOI 0.1, 96 h, TCID50, ± SEM, three independent trials
[6] = 10 µM compound, MOI 0.1, 40 h, TCID50, ± SEM, three independent trials
[7] = 10 µM compound, MOI 0.1, 96 h, TCID50, ± SEM, three independent trials
[8] = 10 µM compound, 40 h, CellTiter-Glo, ± SEM, three independent trials
[9] = 10 µM compound, 96 h, CellTiter-Glo, ± SEM, three independent trials

Molecule: CCCCc1oc2ccccc2c1C(=O)c1cc(I)c(OCCN(CC)CC)c(I)c1 [Amiodarone HCl]
- Autophagy Activity Factor (AAF) [1]: 60.40
- ZIKV IbH titer in Vero cells compared to control (ZIKV IbH): reduced ZIKV IbH titers
- activity at 10 µM (ZIKV SPH [2]; [5]): 2 ± 0.5%

Molecule: CO[C@H]1C[C@@H]2CC[C@@H](C)[C@@](O)(O2)C(=O)C(=O)N2CCCC[C@H]2C(=O)O[C@H]([C@H](C)C[C@@H]2CC[C@@H](O)[C@H](OC)C2)CC(=O)[C@H](C)/C=C(\C)[C@@H](O)[C@@H](OC)C(=O)[C@H](C)C[C@H](C)/C=C/C=C/C=C/1C [Rapamycin]
- Autophagy Activity Factor (AAF) [1]: 7.74
- Vero Viability (Vero cells; 10 µM): 66.0 ± 2.6% of untreated control
- ZIKV SPH Relative Titer in Vero Cells (ZIKV SPH [3]; [6]): increased ZIKV titers
- C6/36 Viability (C6/36 cells; 10 µM): 59 ± 7.3% of untreated control
- ZIKV SPH Relative Titer in C6/36 Cells (ZIKV SPH [2]; [7]): slightly decreased production
- ZIKV SPH Relative Titer in C6/36 Cells (ZIKV SPH [2]; 10 µM compound, MOI 0.1, 96 h, TCID50, ± SEM, three independent trials, listed as rapamycin): slightly decreased titers
- activity at 10 µM (ZIKV SPH [2]; [5]): 75.7 ± 47.7%

Molecule: Cl.N [Ammonium chloride]
- ZIKV replication, time-of-addition (ZIKV SPH [4]; 30 mM ammonium chloride added later in infection): less inhibitory
- ZIKV replication, time-of-addition (ZIKV SPH [4]; 30 mM ammonium chloride, 2 h prior to infection and at the time of infection): inhibited ZIKV replication

Molecule: CCN(CCO)CCCC(C)Nc1ccnc2cc(Cl)ccc12 (stereo not shown) [Hydroxychloroquine]
- ZIKV spread in a mouse model (ZIKV): blocked ZIKV spread
- Vero Viability (Vero cells; 10 µM): 85.3 ± 8.4% of untreated control
- ZIKV SPH Relative Titer in Vero Cells (ZIKV SPH [3]; [6]): decreased titers
- C6/36 Viability (C6/36 cells; 10 µM): 35 ± 9.7% of untreated control
- ZIKV SPH Relative Titer in C6/36 Cells (ZIKV SPH [2]; [7]): decreased titers
- activity at 10 µM (ZIKV SPH [2]; [5]): 25.1 ± 12.6%

Molecule: COc1ccc(C[C@H]2NC[C@H](O)[C@H]2OC(C)=O)cc1 [Anisomycin]
- Vero Viability (Vero cells; [8]): 12.7 ± 4.3% of untreated control
- ZIKV SPH Relative Titer in Vero Cells (ZIKV SPH [3]; [6]): 0.0 ± 0% of untreated control
- C6/36 Viability (C6/36 cells; [9]): 7 ± 0.9% of untreated control
- ZIKV SPH Relative Titer in C6/36 Cells (ZIKV SPH [2]; [7]): 0.0 ± 0% of untreated control

Molecule: CCCC(=O)Nc1ncnc2c1ncn2[C@@H]1O[C@@H]2COP(=O)([O-])O[C@H]2[C@H]1OC(=O)CCC.[Na+] [Dibutyryl cAMP·Na]
- Vero Viability (Vero cells; 10 µM): 98.3 ± 4.4% of untreated control
- ZIKV SPH Relative Titer in Vero Cells (ZIKV SPH [3]; [6]): 60.6 ± 36.7% of untreated control
- C6/36 Viability (C6/36 cells; [9]): 117 ± 10.7% of untreated control
- ZIKV SPH Relative Titer in C6/36 Cells (ZIKV SPH [2]; [7]): 142.6 ± 63.9% of untreated control

Molecule: C=CC(C)(C)c1cc(/C=C/C(=O)c2ccc(O)cc2)c(OC)cc1O [Licochalcone A]
- Autophagy Activity Factor (AAF) [1]: 12.33
- Vero Viability (Vero cells; 10 µM compound, 40 h, CellTiter-Glo, ± SEM, three independent trials, 10 µM): 100.7 ± 9.4% of untreated control
- Vero Viability (Vero cells; 10 µM compound, 40 h, CellTiter-Glo, ± SEM, three independent trials, listed as licochalcone A, 10 µM): above 80% of untreated control
- ZIKV SPH Relative Titer in Vero Cells (ZIKV SPH [3]; [6]): 7.2 ± 2.9% of untreated control
- ZIKV SPH Relative Titer in Vero Cells (ZIKV SPH [3]; 10 µM compound, MOI 0.1, 40 h, TCID50, ± SEM, three independent trials, listed as licochalcone A): below 10% of untreated control
- ZIKV IbH titer in Vero cells compared to control (ZIKV IbH): reduced ZIKV IbH titers
- C6/36 Viability (C6/36 cells; [9]): 43 ± 2% of untreated control
- ZIKV SPH Relative Titer in C6/36 Cells (ZIKV SPH [2]; [7]): 51.8 ± 28.5% of untreated control

Molecule: CN1CCN(CCCN2c3ccccc3Sc3ccc(C(F)(F)F)cc32)CC1.Cl.Cl [Trifluoperazine·2HCl]
- Vero Viability (Vero cells; 10 µM): 51.0 ± 22.1% of untreated control
- ZIKV SPH Relative Titer in Vero Cells (ZIKV SPH [3]; [6]): 2.8 ± 0.7% of untreated control
- C6/36 Viability (C6/36 cells; [9]): 10 ± 3.8% of untreated control
- ZIKV SPH Relative Titer in C6/36 Cells (ZIKV SPH [2]; [7]): 0.3 ± 0.3% of untreated control

Molecule: Nc1ncnc2c1nc(Sc1ccc(Cl)cc1)n2[C@@H]1O[C@@H]2COP(=O)([O-])O[C@H]2[C@H]1O.[Na+] [8-CPT-cAMP·Na]
- Vero Viability (Vero cells; [8]): 92.7 ± 0.7% of untreated control
- ZIKV SPH Relative Titer in Vero Cells (ZIKV SPH [3]; [6]): 107.8 ± 65.3% of untreated control
- C6/36 Viability (C6/36 cells; [9]): 75 ± 3.7% of untreated control
- ZIKV SPH Relative Titer in C6/36 Cells (ZIKV SPH [2]; [7]): 60.1 ± 18.3% of untreated control

Molecule: COc1cc([C@@H]2c3cc4c(cc3[C@@H](O[C@@H]3O[C@@H]5CO[C@@H](C)O[C@H]5[C@H](O)[C@H]3O)[C@H]3COC(=O)[C@H]23)OCO4)cc(OC)c1O [Etoposide]
- Vero Viability (Vero cells; 10 µM): 84.0 ± 3.6% of untreated control
- activity at 10 µM (ZIKV SPH [3]; [6]): 134 ± 34.3%
- C6/36 Viability (C6/36 cells; [9]): 119 ± 12.5% of untreated control
- activity at 10 µM (ZIKV SPH [2]; [5]): 737 ± 89.3%

Molecule: COC(=O)C1=C(C)NC(C)=C([N+](=O)[O-])C1c1ccccc1C(F)(F)F (racemic) [(±)Bay K8644]
- Vero Viability (Vero cells; [8]): 94.0 ± 3% of untreated control
- ZIKV SPH Relative Titer in Vero Cells (ZIKV SPH [3]; [6]): 34.9 ± 15.2% of untreated control
- C6/36 Viability (C6/36 cells; [9]): 53 ± 11.1% of untreated control
- ZIKV SPH Relative Titer in C6/36 Cells (ZIKV SPH [2]; [7]): 39.4 ± 10.7% of untreated control

Molecule: COC(=O)C1=C(C)NC(C)=C(C(=O)OCCCN2CCC(c3ccccc3)(c3ccccc3)CC2)[C@H]1c1cccc([N+](=O)[O-])c1 [Niguldipine]
- Vero Viability (Vero cells; 10 µM): 30.0 ± 14.2% of untreated control
- activity at 10 µM (ZIKV SPH [3]; 40 h): 0.2 ± 0.1%
- C6/36 Viability (C6/36 cells; 10 µM): 5 ± 2.1% of untreated control
- activity at 10 µM (ZIKV SPH [2]; C6/36, 96 h): 0%

Molecule: Tunicamycin
- Vero Viability (Vero cells; [8]): 56.3 ± 8.7% of untreated control
- ZIKV SPH Relative Titer in Vero Cells (ZIKV SPH [3]; [6]): 0.5 ± 0.5% of untreated control
- C6/36 Viability (C6/36 cells; [9]): 47 ± 7.6% of untreated control
- ZIKV SPH Relative Titer in C6/36 Cells (ZIKV SPH [2]; [7]): 1.8 ± 0.8% of untreated control

Molecule: O=S(=O)(F)Cc1ccccc1 [PMSF]
- Vero Viability (Vero cells; [8]): 98.3 ± 2% of untreated control
- ZIKV SPH Relative Titer in Vero Cells (ZIKV SPH [3]; [6]): 89.0 ± 7% of untreated control
- C6/36 Viability (C6/36 cells; [9]): 81 ± 6.4% of untreated control
- ZIKV SPH Relative Titer in C6/36 Cells (ZIKV SPH [2]; [7]): 258.0 ± 145.2% of untreated control

Molecule: C=CCNc1ncnc2ccc(Br)cc12 [SMER28]
- Vero Viability (Vero cells; [8]): 92.7 ± 3.5% of untreated control
- ZIKV SPH Relative Titer in Vero Cells (ZIKV SPH [3]; [6]): 65.0 ± 5.6% of untreated control
- C6/36 Viability (C6/36 cells; [9]): 36 ± 5.3% of untreated control
- ZIKV SPH Relative Titer in C6/36 Cells (ZIKV SPH [2]; [7]): 38.7 ± 12.2% of untreated control

Molecule: CNC(=O)c1cc(Oc2ccc(NC(=O)Nc3ccc(Cl)c(C(F)(F)F)c3)cc2)ccn1 [Sorafenib tosylate]
- Vero Viability (Vero cells; [8]): 58.3 ± 9.9% of untreated control
- activity at 10 µM (ZIKV SPH [3]; [6]): 5.8 ± 1.8%
- C6/36 Viability (C6/36 cells; [9]): 23 ± 8.8% of untreated control
- activity at 10 µM (ZIKV SPH [2]; [5]): 9.4 ± 8.8%

Molecule: COc1cc(CNC(=O)CCCCCCC(C)C)ccc1O [Dihydrocapsaicin]
- Vero Viability (Vero cells; 10 µM): 92.3 ± 3.8% of untreated control
- activity at 10 µM (ZIKV SPH [3]; [6]): 28.7 ± 10.5%
- C6/36 Viability (C6/36 cells; 10 µM): 61 ± 2.2% of untreated control
- activity at 10 µM (ZIKV SPH [2]; [5]): 64.1 ± 16%

Molecule: Cc1ccc(C(=O)Nc2ccc(S(=O)(=O)[O-])c3cc(S(=O)(=O)[O-])cc(S(=O)(=O)[O-])c23)cc1NC(=O)c1cccc(NC(=O)Nc2cccc(C(=O)Nc3cc(C(=O)Nc4ccc(S(=O)(=O)[O-])c5cc(S(=O)(=O)[O-])cc(S(=O)(=O)[O-])c45)ccc3C)c2)c1.[Na+].[Na+].[Na+].[Na+].[Na+].[Na+] [Suramin·6Na]
- Vero Viability (Vero cells; 10 µM): 92.0 ± 1.2% of untreated control
- ZIKV SPH Relative Titer in Vero Cells (ZIKV SPH [3]; [6]): 107.4 ± 44.8% of untreated control
- C6/36 Viability (C6/36 cells; [9]): 86 ± 8.4% of untreated control
- ZIKV SPH Relative Titer in C6/36 Cells (ZIKV SPH [2]; [7]): 86.6 ± 23.2% of untreated control

Molecule: CCCCCC[C@@H]([C@@H](C)O)n1cnc2c(N)ncnc21.Cl [EHNA·HCl]
- Vero Viability (Vero cells; 10 µM): 92.3 ± 2% of untreated control
- ZIKV SPH Relative Titer in Vero Cells (ZIKV SPH [3]; [6]): 81.0 ± 7.6% of untreated control
- C6/36 Viability (C6/36 cells; [9]): 55 ± 4.2% of untreated control
- ZIKV SPH Relative Titer in C6/36 Cells (ZIKV SPH [2]; [7]): 36.4 ± 9.1% of untreated control
